# Tests used:
# [1] = tested on: subjects with painful DPN; assay: Phase II clinical study of Compound I 250 mg BID, 4 weeks, in subjects with painful diabetic neuropathy (Example 1); assay type: in vivo, human; set-up: key to Mean API score (24-hour): 11-point pain intensity NRS (0–10); key to Night-time API Score, mean score: API score on 11-point pain intensity NRS (0–10); conditions: for Sleep interference score, mean score: 11-point scale; for API Score, mean score: 11-point NRS; for % subject population with >30% Reduction from baseline API Score / % subject population with >50% Reduction from baseline API Score: end of 4 week treatment
# From the text: Example 1: A Phase II Clinical Study to Evaluate Efficacy, Safety and Tolerability of Compound I in Subjects With Painful Diabetic Neuropathy
# • To assess the efficacy of Compound I in the treatment of pain associated with diabetic peripheral neuropathy (DPN). • To evaluate the safety and tolerability of Compound I administered once daily (OD) or twice daily (BID) in subjects with painful DPN. • To investigate effect of Compound I on time to sustained improvement in pain, night-time pain, intensity of pain on neuropathic pain symptoms inventory (NPSI), and sleep in subjects with painful DPN. • To evaluate number of subjects who are responders on the […] of Change (PGIC) Questionnaire, Clinician Global Impression of Change (CGIC) Questionnaire; and number of subjects who achieve various levels of percent reduction in pain. • To investigate the pharmacokinetics (PK) of Compound I in subjects with DPN • To investigate effect of Compound I on the use of rescue medication (ibuprofen 400 mg to 600 mg four times a day or paracetamol 500 mg to 1000 mg two to three times a day) in subjects with painful DPN • To investigate effect of Compound I in subjects with painful DPN who have mechanical hyperalgesia and/or cold allodynia.
# This was a multi-center, randomized, double-blind, placebo-controlled, parallel group, 4 week study of Compound I 250 mg BID in subjects with painful DPN. The study included a total of 138 subjects with DPN, randomized in a 1:1 ratio into 250 mg BID Compound I or Placebo. The study was conducted for a total period of 9 weeks as: up to a 2-week screening/washout period, a 1-week placebo-run in period, 4 weeks of treatment period and 2 weeks of follow-up period.
# • Men and women (post-menopausal/surgically sterile only) aged between 18-75 (both inclusive) years • Subjects having diabetes mellitus (type 1 or 2) with a distal symmetric chronic sensorimotor painful peripheral neuropathy • A history of DPN pain for at least 6 months and no greater than 5 years. • DN4 “Douleur Neuropathique en 4” questions score of ≥4 • A baseline 24-hour average daily pain intensity score ≥4 and <9 as measured on a 11-point pain intensity NRS (numeric rating scale) • Subjects having stable glycemic control for at least one or two or three months prior to randomization having HbAlc (Glycosylated Hemoglobin) <8% • Subjects detected to have mechanical hyperalgesia and/or cold allodynia (detected with appropriate methodology)
# Study medications were: • Placebo matching 250 mg Compound I during the placebo run-in period was taken orally BID in a fed state (30 minutes after breakfast/dinner) every day for day −7 to day −1 during Run-in period. The time interval between 2 consecutive doses must be 12 hours±60 min • 250 mg Compound I potassium granules or matching placebo during day-1 to day-28 treatment period. The time interval between 2 consecutive doses was 12 hours±60 min. • Reference therapy: Placebo to match investigational product, administered BID.
# Clinical Endpoints were: • Change from baseline to end of treatment (i.e., baseline to end of week 4) in the mean 24-hour API score based on an 11-point pain intensity NRS • Change from baseline at the end of week 1, 2, 3, 4 and 6 in: • Mean night-time API (average pain intensity) Score (subject diary): night-time is defined as the time between going to bed at night and rising in the morning • Mean night-time worst pain intensity Score (subject diary): worst pain is defined as the subject's assessment of their worst pain intensity for the time period • Mean sleep interference Score (subject diary): A 11-point scale that asks subjects to select the score that best describes how much the pain interfered with sleep during the past 24 hours.
# [2] = tested on: subjects with painful DPN and having preserved peripheral nerve function; assay: Phase II clinical study of Compound I 250 mg BID, 4 week treatment plus 2 weeks follow up, in subjects with painful DPN and preserved peripheral nerve function (Example 2); assay type: in vivo, human
# From the text: Example 2: A Phase II Clinical Study to Evaluate Efficacy, Safety and Tolerability of Compound I in Subjects With Painful Diabetic Neuropathy
# • Objectives of this study were To assess the safety, efficacy and tolerability of Compound I in the treatment of pain associated with diabetic peripheral neuropathy (DPN) and to evaluate efficacy of Compound I administered once daily (OD) or twice daily (BID) in subjects with painful DPN and having preserved peripheral nerve function and to investigate effect of Compound I on time to sustained improvement in pain, night-time pain, intensity of pain on neuropathic pain symptoms inventory (NPSI), and sleep in subjects with painful DPN and having preserved peripheral nerve function. • This was a randomized, double-blind, placebo-controlled, parallel group, 4 week treatment followed by 2 weeks follow up study of Compound I 250 mg and placebo BID in subjects with painful DPN and having preserved peripheral nerve function. The study included a total of 136 subjects with DPN and having preserved peripheral nerve function. • Clinical Endpoints were change from baseline in mean 24-hour API score based on an 11-point pain intensity NRS at the end of week 4 and week 6 in • In ITT ([…]) population and • In subject having one or more from baseline average pain intensity (API) score of ≥5, Cold detection threshold >18° C. at baseline as determined by QST and Warm detection threshold <49° C. at baseline as determined by QST
# [3] = Sub-group: Hypersensitivity to cold stimulus and/or mechanical stimulus, Week 4
# [4] = Sub-group: Moderate to severe pain (NRS score 5-8) and hypersensitivity to cold stimulus and/or mechanical stimulus, Week 4
# [5] = Sub-group: Moderate to severe pain (NRS score 5-8) and preserved peripheral sensory neurons, Week 4
# [6] = Sub-group: Moderate to severe pain (NRS score 5-8), Week 4
# [7] = Sub-group: Preserved peripheral sensory neurons (non-denervation by QST), Week 4
# [8] = Week 0 (baseline), 250 mg BID oral
# [9] = Week 4 vs baseline, 250 mg BID oral
# [10] = Sub-group: Hypersensitivity to cold stimulus and/or mechanical stimulus
# [11] = Sub-group: Moderate to severe pain (NRS score 5-8)
# [12] = Sub-group: Moderate to severe pain (NRS score 5-8) and hypersensitivity to cold stimulus and/or mechanical stimulus
# [13] = Sub-group: Moderate to severe pain (NRS score 5-8) and preserved peripheral sensory neurons
# [14] = Sub-group: preserved peripheral sensory neurons
# [15] = subjects with one or more of baseline API score ≥5, Cold detection threshold >18° C., Warm detection threshold <49° C. (QST), Week 4
# [16] = subjects with one or more of baseline API score ≥5, Cold detection threshold >18° C., Warm detection threshold <49° C. (QST), Week 6
structure (smiles),measurement,setting,value
"Cn1c(=O)c2c(CC(=O)Nc3nc(-c4ccc(F)c(C(F)(F)F)c4F)cs3)csc2n(C)c1=O [Compound I, N-{4-[2,4-difluoro-3-(trifluoromethyl)phenyl]-1,3-thiazol-2-yl}-2-(1,3-dimethyl-2,4-dioxo-1,2,3,4-tetrahydrothieno[2,3-d]pyrimidin-5-yl)acetamide]",Onset of Sustained improvement in 24-hour API Score,[1]; 250 mg BID oral,Score is achieved in 18 days
same,Mean API score (24-hour),"[1]; Sub-group: Hypersensitivity to cold stimulus and/or mechanical stimulus, Week 0 (baseline)",6.1
same,API score % Reduction from baseline,[1]; [3],32.78%
same,Mean API score (24-hour),[1]; [3],4.1
same,Mean API score (24-hour),"[1]; Sub-group: Moderate to severe pain (NRS score 5-8) and hypersensitivity to cold stimulus and/or mechanical stimulus, Week 0 (baseline)",6.5
same,API score % Reduction from baseline,[1]; [4],36.92%
same,Mean API score (24-hour),[1]; [4],4.1
same,Mean API score (24-hour),"[1]; Sub-group: Moderate to severe pain (NRS score 5-8) and preserved peripheral sensory neurons, Week 0 (baseline)",6.4
same,API score % Reduction from baseline,[1]; [5],35.93%
same,Mean API score (24-hour),[1]; [5],4.1
same,Mean API score (24-hour),"[1]; Sub-group: Moderate to severe pain (NRS score 5-8), Week 0 (baseline)",6.3
same,API score % Reduction from baseline,[1]; [6],33.33%
same,Mean API score (24-hour),[1]; [6],4.2
same,Mean API score (24-hour),"[1]; Sub-group: Preserved peripheral sensory neurons (non-denervation by QST), Week 0 (baseline)",6.2
same,API score % Reduction from baseline,[1]; [7],33.33%
same,Mean API score (24-hour),[1]; [7],4.1
same,Mean daily dose of rescue medication,[1]; [8],425 mg
same,"Night-time API Score, mean score",[1]; [8],5.1
same,"Night-time Worst pain intensity Score, mean score",[1]; [8],5.3
same,"Sleep interference score, mean score",[1]; [8],4.5
same,"API Score, mean score","[1]; Week 0, 250 mg BID oral",6.0
same,Mean daily dose of rescue medication,"[1]; Week 4, 250 mg BID oral",111 mg
same,"Night-time API Score, mean score","[1]; Week 4, 250 mg BID oral",3.4
same,"Night-time Worst pain intensity Score, mean score","[1]; Week 4, 250 mg BID oral",3.5
same,"API Score, mean score","[1]; Week 4, 250 mg BID oral",4.1
same,"Sleep interference score, mean score","[1]; Week 4, 250 mg BID oral",2.7
same,"API Score, % Reduction","[1]; Week 4 vs Week 0, 250 mg BID oral",31.66%
same,"Change in mean daily dose of rescue medication, % Reduction",[1]; [9],73.8%
same,"Night-time API Score, % Reduction",[1]; [9],33.33%
same,"Night-time Worst pain intensity Score, % Reduction",[1]; [9],33.96%
same,"Sleep interference score, % Reduction",[1]; [9],40%
same,% subject population with >30% Reduction from baseline API Score,[1]; [10],59.1%
same,% subject population with >50% Reduction from baseline API Score,[1]; [10],36.4%
same,% subject population with >30% Reduction from baseline API Score,[1]; [11],58.6%
same,% subject population with >50% Reduction from baseline API Score,[1]; [11],34.5%
same,% subject population with >30% Reduction from baseline API Score,[1]; [12],66.7%
same,% subject population with >50% Reduction from baseline API Score,[1]; [12],44.4%
same,% subject population with >30% Reduction from baseline API Score,[1]; [13],56.7%
same,% subject population with >50% Reduction from baseline API Score,[1]; [13],40.0%
same,% subject population with >30% Reduction from baseline API Score,[1]; [14],52.9%
same,% subject population with >50% Reduction from baseline API Score,[1]; [14],35.3%
same,Mean API score,"[2]; ITT population, Week 0 (baseline)",6.0
same,API score % Reduction from baseline,"[2]; ITT population, Week 4",32.16%
same,Mean API score,"[2]; ITT population, Week 4",4.07
same,API score % Reduction from baseline,"[2]; ITT population, Week 6",40.16%
same,Mean API score,"[2]; ITT population, Week 6",3.59
same,Mean API score,"[2]; subjects with one or more of baseline API score ≥5, Cold detection threshold >18° C., Warm detection threshold <49° C. (QST), Week 0 (baseline)",5.0
same,API score % Reduction from baseline,[2]; [15],49.6%
same,Mean API score,[2]; [15],2.52
same,API score % Reduction from baseline,[2]; [16],66.2%
same,Mean API score,[2]; [16],1.69

# — patent US20230000872A1, “TRPA1 ANTAGONIST FOR THE TREATMENT OF PAIN ASSOCIATED TO DIABETIC NEUROPATHIC PAIN” (Glenmark Pharmaceuticals S.A., priority 2014, published 2023)
